Assay results from patent publication US20140357860A1, “SALT OF IVABRADINE WITH ADIPIC ACID” (ratiopharm GmbH, priority 2010, published 2014).
Counter-ions that a name gives are not always drawn.

Key:
[1] = Stability of the solid form on storage at different temperatures and humidities, open or closed containers; type: physicochemical; settings: for Stability, summary in words: various conditions of temperature, humidity and container
Source text: The stability of ivabradine adipate in comparison to ivabradine hydrochloride form I was investigated at different temperatures and humidities in open or closed containers for different storage times.

[2] = under physiological conditions; cited from earlier work

In the case of COc1cc2c(cc1OC)CC(=O)N(CCCN(C)C[C@H]1Cc3cc(OC)c(OC)cc31)CC2 [Ivabradine HCl form I, Ivabradine HCl], the “Stability (solid form after storage)” value ([1]; 25° C./60% closed, 33 d) is reported as “unchanged”, the “Stability (solid form after storage)” value ([1]; 25° C./60% open, 33 d) is reported as “β + unident” and the “Stability (solid form after storage)” value ([1]; 30° C./65% closed, 33 d) is reported as “unchanged”. For the same compound, the “Stability (solid form after storage)” value ([1]; 30° C./65% open, 33 d) was “β”, the “Stability (solid form after storage)” value ([1]; 40° C./75% closed, 33 d) was “unchanged” and the “Stability (solid form after storage)” value ([1]; 40° C./75% open, 33 d) was “β”. The “Stability, summary in words” value ([1]; HCl) was “undergoes phase transition into Ivabradine HCl, form beta”.
With COc1cc2c(cc1OC)CC(=O)N(CCCN(C)C[C@H]1Cc3cc(OC)c(OC)cc31)CC2 [Ivabradine adipate, Ivabradine Adipate] the “Stability (solid form after storage)” value ([1]; 25° C./60% closed, 57 d) was “unchanged”, the “Stability (solid form after storage)” value ([1]; 25° C./60% open, 57 d) was “unchanged” and the “Stability (solid form after storage)” value ([1]; 30° C./65% closed, 57 d) was “unchanged”. The “Stability (solid form after storage)” value ([1]; 30° C./65% open, 57 d) was “unchanged”, the “Stability (solid form after storage)” value ([1]; 40° C./75% closed, 57 d) was “unchanged” and the “Stability (solid form after storage)” value ([1]; 40° C./75% open, 57 d) was “unchanged”. For the same compound, the “Stability, summary in words” value [1] was “stable”.
In the case of COc1cc2c(cc1OC)CC(=O)N(CCCN(C)C[C@H]1Cc3cc(OC)c(OC)cc31)CC2 [Ivabradine, (S)-3-{3-[(3,4-dimethoxybicyclo[4.2.0]octa-1,3,5-trien-7-ylmethyl)methylamino]propyl}-7,8-dimethoxy-2,3,4,5-tetrahydro-1H-3-benzazepin-2-one], the water solubility [2] is listed as over 10 mg/mL.
